The values below come from patent US6365622B1 (Sigma-Tau HealthScience S.p.A., priority 1998, dated 2002).

One data set concerns wobbler mice. The data set can be described thus: Motor co-ordination abnormality test in wobbler mice. Conditions: oral twenty days; for percentage increase in running time: acetyl L-carnitine 200 mg/kg, carnitine mixture 200 mg/kg, α-lipoic acid 50 mg/kg, time to run 10 cm; for holding time on the edge of an inclined platform (in words): versus controls. The format is in vivo. The procedure:
These tests were conducted in “wobbler mice”, that is to say animals that present an unsteady, staggering gait, an abnormal position of the paws and a reduced speed of movement. These abnormalities are related to progressive atrophy of the motoneurons and musculo-cutaneous nerve fibres, particularly as affecting the anterior limbs. The tests were conducted according to the procedure proposed by Mitsumoto (Mitsumoto H., Annal. Neurol., 36, 14, 1994). […] The examination was performed by evaluating, in the treated animals versus controls, the time that each animal holds on to the edge of an inclined platform (holding time) and also the time it takes to run a distance of 10 cm (running time).

For data set [1], the system named is cerebral ischaemia induced by occluding the middle cerebral artery (MCA). The experiment in a line: Neuroprotective activity in experimental cerebral ischaemia (endothelin-1 occlusion of the MCA). The note with it: rat, i.v. 5 minutes after endothelin; acetyl L-carnitine 50 mg/kg, carnitine mixture 50 mg/kg, α-lipoic acid 20 mg/kg; read three days later. It counts as in vivo. The procedure:
Occlusion of the artery is induced, and the resulting ischaemia can be checked three days after this procedure by transcardiac perfusion of a solution of paraformaldehyde (4% in PBS).
After removing the brain, it was placed in fixative containing 10% sucrose, and cryostatic sections ([…]) fixed with cresyl violet were examined under the optical microscope.
The volume of the infarcted area was calculated according to the method described by Park (Park C. K., Anns. Neurol., 20-150, 1989).

Data set [2] deals with proprioceptive sensory perception abnormalities induced by cisplatin. The data set can be described thus: Cisplatin-induced sensory neuronal lesions (rotarod test). The format is in vivo. The note with it: mouse rotarod; cisplatin 10 mg/kg s.c. seven days; oral seven days acetyl L-carnitine 300 mg/kg, carnitine mixture 300 mg/kg, α-lipoic acid 50 mg/kg. Here is the method: The proprioceptive sensory perception abnormalities induced by cisplatin in the mouse were evaluated by means of the rotarod test (Apfel, S. C., Ann. Neurol., 29, 89, 1991).
A general note: The rotarod test checks motor coordination on a turning rod.

In data set [3] the test system is sorbitol in ocular lens and sciatic nerve of diabetic rats. The experiment in a line: Sorbitol content in ocular lens and sciatic nerve in the diabetic rat (streptozotocin). The format is in vivo. The note with it: i.p. eight days, acetyl L-carnitine 100 mg/kg, carnitine mixture 100 mg/kg, α-lipoic acid 25 mg/kg. The procedure:
These tests were conducted in a group of rats in which diabetes was induced by means of the intravenous administration of 50 mg/kg of streptozotocin. One week after injection, serum glucose was tested and those rats were considered diabetic which presented serum glucose values above 450 mg/dl. These animals then received intraperitoneal injections, for eight consecutive days, of acetyl L-carnitine (100 mg/kg), or carnitine mixture (acetyl L-carnitine+propionyl L-carnitine+isovaleryl L-carnitine in a […] weight ratio to one another) (100 mg/kg), or (x-lipoic acid (25 mg/kg), either alone or in various combinations.
After eight days of treatment, after suitable isolation, the sorbitol concentration present in both the sciatic nerve and the ocular lens of diabetic rats was measured before and after the treatment administered.

Data set [4] in a line: Toxicological tests: high single doses, parenteral and oral. The format is in vivo. The note with it: rats and mice.
Data set [5] relates to alloxan-induced hyperglycaemia. The data set can be described thus: Experimental diabetic hyperglycaemia test (alloxan). It counts as in vivo. The note with it: alloxan hyperglycaemic rat; for Serum glucose, Initial: before treatment; for Serum glucose, After 21 days: oral for three weeks, acetyl L-carnitine 200 mg/kg, α-lipoic acid 50 mg/kg. The procedure:
Controlling serum glucose is therefore one of the most important means of preventing diseases related to diabetes. […] The hyperglycaemia was induced by subcutaneous injection of alloxan (100 mg/kg) in the rat, and those rats were considered hyperglycaemia which presented serum glucose levels above 450 mg/dl seven days after the alloxan injection.
Treatment with the test substances was given orally for a period of three weeks. At the end of this period, serum glucose was measured in the various groups of rats, both hyperglycaemic and treated.

The subject of data set [6] is neuromuscular conduction in diabetic rats. The data set can be described thus: Neuromuscular conduction test in the diabetic rat (streptozotocin). Conditions: after 4 weeks. The format is in vivo. Here is the method: In these tests, we induced experimental diabetes in rats by intravenously injecting the experimental animals (rats with a mean weight of 300 g) with 50 mg/kg of streptozotocin. In the animals with induced diabetes (serum glucose above 450 mg/dl) the neuromuscular conduction velocity (NMCN7) was measured. To this end, the sciatic nerve was isolated (2 cm length) and the soleus muscle was separated from the gastrocnemius and its distal tendon cut and connected up to an isometric transducer which recorded the muscular contraction force (MCF). The muscle was stimulated via the sciatic nerve by means of two electrodes inserted at a distance of 10 mm from the nerve and connected up to a stimulator.
A bipolar electrode was placed in the distal end of the muscle for displaying the electromyogram via an oscilloscope.
The NMCV was measured in m/sec, dividing the distance between the stimulation electrodes by the mean difference in latency between the start of the […] potentials evoked in the two sites. The MCF was expressed in mm.

In data set [7] the test system is brain cells of Wistar rats. The experiment in a line: Survival and growth of isolated brain cells treated with IGF-I, carnitines and α-lipoic acid. The format is cell-based. Conditions: 24 hours after addition; IGF-I 25 ng/ml, acetyl L-carnitine 100 ng/ml, carnitine mixture 100 ng/ml. Here is the method: To this end, brain cells of Wistar rats were isolated according to the method described by Thanguipon (Thanguipon W., Dev. Brain Res., 11, 177, 1983) and were distributed on plates with a density of 3×10^5/cm^2. To the culture medium was added cytosine arabino-furanoside ([…]) to prevent the replication of non-neuronal cells. After eight days, the cells were washed and maintained in a culture in which the serum was replaced with BME (Basal Eagles Medium, Life Technologies, Gaithersburg, Md.) containing a 5 mM KCl concentration.
Cell survival and growth in culture were observed 24 hours after addition of the substances to the medium, on 35 mm disks in contact with 10 ng/ml of fluorescein acetate according to the technique described by Jones (Jones K. H., J. Histochem. Cytochem., 33, 77, 1985). The cell count was done with a fluorescence microscope.

Data set [8] deals with tibial nerve after cutting the sciatic nerve in diabetic rats. The data set can be described thus: Sciatic nerve regeneration test in diabetic rats (alloxan, cut sciatic nerve). It counts as in vivo, rat. Conditions: thirty days after cutting the sciatic nerve, diet 200 mg/kg acetyl L-carnitine or carnitine mixture, 50 mg/kg α-lipoic acid. The procedure: The technique used in these tests is the one described by Fernandez (Fernandez E., Int. J. Clin. Pharmacol. Res., 10, 85, 1990).
Diabetes (serum glucose above 450 mg/dl) was induced in a group of rats by subcutaneous injection of 100 mg/kg of alloxan. […] The compounds were administered a week before cutting the sciatic nerve and for thirty days after cutting.
The sciatic nerve was cut under anaesthesia and after exposing 1 cm of it at the level of the sciatic foramen. The border of the lesion was marked with an epineural suture. Thirty days after cutting the nerve, the tissue of the tibial nerve, one of the main divisions of the sciatic nerve, was examined, after sacrificing the animals. Four cross-sections of the tibial nerve measuring approximately 4 mm in length were thus subjected to morphological and morphometric examination by means of a semiautomatic image analyser (Zeiss Videoplan Image Analyser).
The number of regenerating axons and their density per […] were counted, as well as the degenerate elements.

For the molecule `CC(=O)O[C@H](CC(=O)[O-])C[N+](C)(C)C` [Acetyl L-carnitine, acetyl L-carnitine], in the data set on wobbler mice, the “percentage increase in running time” value is on record as 35 ± 3.2% and the “holding time on the edge of an inclined platform (in words)” value is “improves”. The “Extent of ischaemia (volume in mm^3) due to occlusion of the MCA, Volume” value in data set [1] came out at 25.6 ± 1.5 mm^3. Also, the “Equilibrium time” value in data set [2] was found to be 9.5 ± 0.6 s. Moreover, in data set [3], the “Sorbitol, Lens” value turned out to be 32.7 ± 2.5 nmol/mg and the “Sorbitol, Sciatic nerve” value worked out at 1.15 ± 0.11 nmol/mg. The “amount administered orally without any of the animals dying” value in data set [4] (oral) was “more than 500 mg/kg”. In addition, the “amount administered parenterally without any of the animals dying” value in data set [4] (parenteral) is “more than 250 mg/kg”. In data set [5], the “Serum glucose, Initial” value was 509.5 ± 28 mg/dL and the “Serum glucose, After 21 days” value is 405.9 ± 25 mg/dL. Besides, in data set [6], the “MCF (muscular contraction force)” value is 40.6 ± 3.4 mm and the “NMCV (neuromuscular conduction velocity)” value came out at 38.5 ± 1.9 m/sec. Moreover, the “Cell growth (% vs controls)” value in data set [7] came to 5 ± 0.51 % vs controls. Also, in data set [8], the “Density of tibial nerve degenerate elements (per 100 nm^2)” value was determined as 0.16 ± 0.02 per 100 nm^2 and the “Number of tibial nerve degenerate elements” value is reported as 560 ± 61.
Turning to `N.N.[Cl][Pt][Cl]` [Cisplatin, cisplatin], in data set [2], the “Equilibrium time” value was determined as 8.4 ± 0.8 s.
With `O=C(O)CCCCC1CCSS1` (stereo not drawn) [α-lipoic acid], in the data set on wobbler mice, the “percentage increase in running time” value was 40 ± 3.9% and the “holding time on the edge of an inclined platform (in words)” value was “improves”. In addition, the “Extent of ischaemia (volume in mm^3) due to occlusion of the MCA, Volume” value in data set [1] is recorded as 34.5 ± 2.1 mm^3. Further, the “Equilibrium time” value in [2] was 9.9 ± 0.8 s. Also, in data set [3], the “Sorbitol, Lens” value was 30.8 ± 3.2 nmol/mg and the “Sorbitol, Sciatic nerve” value is on record as 1.08 ± 0.10 nmol/mg. In addition, in [5], the “Serum glucose, Initial” value worked out at 502.8 ± 36 mg/dL and the “Serum glucose, After 21 days” value is 360.4 ± 30 mg/dL. In data set [6], the “MCF (muscular contraction force)” value is recorded as 41.9 ± 3.3 mm and the “NMCV (neuromuscular conduction velocity)” value is listed as 40.1 ± 1.5 m/sec. In data set [7], the “Cell growth (% vs controls)” value was 5 ± 0.39 % vs controls. Also, in [8], the “Density of tibial nerve degenerate elements (per 100 nm^2)” value is listed as 0.20 ± 0.04 per 100 nm^2 and the “Number of tibial nerve degenerate elements” value amounted to 590 ± 0.70.
For “IGF-I: insulin-like growth factor, a peptide of the proinsulin group (somatomedins)”, the “Cell growth (% vs controls)” value in [7] is given as 45 ± 2.8 % vs controls.
